Data taken from patent US7026355B2, “Use of rhein or diacerhein compounds for the treatment or prevention of vascular diseases” (Transition Therapeutics Inc., priority 2001, dated 2006).
Numbered stars: 1 amine (or outer) side, 2 acyl side, 3 side chain; on linkers, the order of the positions; unused ones are H or OH. Bridge positions count the residues as written; N and C are the ends. Square brackets hold non-standard residues; d marks the D form. Peptide text beside a SMILES is read from it. I, II: the chains in the order shown. Actinocin(9to1) = Cc1c2oc3c(C)ccc(C(=O)[*:1])c3nc-2c(C(=O)[*:2])c(N)c1=O; NMeV = CN[C@H](C(=O)O)C(C)C; Sar = CNCC(=O)O

Legend:
[1] = test system: iron regulatory protein; details: inflamed human monocytes; cited from earlier work
[2] = test system: Rat aortic smooth muscle cells (A-10 cells); assay: in vitro assay of smooth muscle cell migration after scrape injury; type: cell-based; details: incubation 20 h
Procedure: The following in vitro assay was conducted to illustrate the effect of diacerhein on smooth muscle cell migration. Increased smooth muscle cell migration following injury is one of the predominant causes of obstruction of the vascular system following stenting and other vascular procedures.
Rat aortic smooth muscle cells (A-10 cells) were seeded at 2.5×10^5 cells/well in 6 well plates using Dulbecco's Modified Eagle Medium™ (Gibco BRL Cat. # 11885-084), 10% FBS and 1% Antibiotic Antimycotic (Gibco BRL Cat. # 15240). Confluency of cells after about 8 h was between 80˜90%. Cells were injured with the single edge cell scraper (one injury/well) then washed twice with PBS and treated with diacerhein at concentrations ranging from 50 μM to 100 μM. Images were taken using a X5 modulation objective (Zeiss, Germany) attached to a Zeiss Axiovert 100 inverted microscope equipped with Hoffman Modulation contrast optical filters (Greenvale, N.Y.).
The images were taken at zero time and following the incubation of smooth muscle cells with diacerhein for a period of 20 h.

[3] = test system: aortic smooth muscle cells; assay: prolonged incubation (1-3 days), cells counted with a hemocytometer; type: cell-based, Rat
Procedure: (§1) The CellTiter 96® AQueous One Solution Cell Proliferation Assay (Promega) was used as a colorimetric method for determining the number of viable cells in proliferation. Cell proliferation assays were performed by adding a small amount of the CellTiter 96® AQueous One Solution Reagent directly to culture wells, incubating for 1–4 hours and then recording absorbance at 490 nm with a 96 well plate reader. The quantity of formazan product as measured by the amount of 490 nm absorbance is known in the art to be directly proportional to the number of living cells in the culture. For the assay, cells were incubated with rhein or diacerhein for 24 h. In addition, cells from selected concentrations are also treated with rhein or diacerhein and are incubated for 1–3 days. The cells are harvested and counted using a hemocytometer. Trypan blue staining was carried out to determine % of viable cells vs dead cells.
Intimal smooth muscle cell (SMC) proliferation plays a key role in atherosclerosis and restenosis following vascular injury. Therefore, rhein or diacerhein is predicted to effectively treat these disease states.

[4] = 5 to 50 mg/kg for periods as long as 50 weeks; cited from earlier work
[5] = test system: prostaglandin E2 synthesis; details: cited from earlier work
[6] = test system: A-10 cells; assay: Trypan blue staining, % of viable cells vs dead cells; type: cell-based; details: no treatment 96.2%
Procedure: as §1

[7] = test system: A-10 cells; assay: CellTiter 96 AQueous One Solution Cell Proliferation Assay; type: cell-based, Rat; details: for Measure of Proliferative Activity (Absorbance at 490 nm): 24 h, no treatment 0.775; for proliferative activity as compared to untreated cells: concentration higher than 10^−7 M
Procedure: A-10 cells were seeded at 1.0×10^3 cells/well in 96 well plates using Dulbecco's Modified Eagle Medium™ (Gibco BRL Cat. # 11885-084), 10% FBS and 1% Antibiotic Antimycotic (Gibco BRL Cat. # 15240) and allowed to grow overnight. Prior to treatment, cells were washed and the culture medium was replaced with culture medium containing either rhein or diacerhein at varying concentrations ranging from 10^−4 to 10^−8M.
as §1

[8] = clinical trials of actinomycin-D eluting stents; cited from earlier work

Row | SMILES | iron regulatory protein activation [1] | migration of smooth muscle cells ([2]; 50 μM) | migration of smooth muscle cells ([2]; 100 μM) | anti-proliferative activity on prolonged incubation (FIG. 2) [3] | severity of osteoarthritis [4] | prostaglandin E2 synthesis [5] | Percentage of viable cells ([6]; Treatment with 10^−4 M) [%] | Percentage of viable cells ([6]; Treatment with 10^−5 M) [%] | Percentage of viable cells ([6]; Treatment with 10^−6 M) [%] | Measure of Proliferative Activity (Absorbance at 490 nm) ([7]; Treatment with 2.5 × 10^−5 M) | Measure of Proliferative Activity (Absorbance at 490 nm) ([7]; Treatment with 5.0 × 10^−5 M) | Measure of Proliferative Activity (Absorbance at 490 nm) ([7]; Treatment with 7.5 × 10^−5 M) | Measure of Proliferative Activity (Absorbance at 490 nm) ([7]; Treatment with 10^−4 M) | Measure of Proliferative Activity (Absorbance at 490 nm) ([7]; Treatment with 10^−5 M) | Measure of Proliferative Activity (Absorbance at 490 nm) ([7]; Treatment with 10^−6 M) | Measure of Proliferative Activity (Absorbance at 490 nm) ([7]; Treatment with 10^−7 M) | proliferative activity as compared to untreated cells [7] | prevention of restenosis [8]
1 | CC(=O)Oc1cccc2c1C(=O)c1c(OC(C)=O)cc(C(=O)O)cc1C2=O [Diacerhein, 4,5-bis(acetyloxy)-9,10-dihydro-4,5dihydroxy-9,10-dioxo-2-anthracenecarboxylic acid] | inhibits iron regulatory protein activation | significantly inhibited | significantly inhibited | anti-proliferative activity | reduced the severity of osteoarthritis | stimulates prostaglandin E2 synthesis | 97.0 | 97.5 | 96.2 | 0.561 | 0.419 | 0.408 | 0.380 | 0.646 | 0.710 | 0.738 | decrease in proliferative activity | –
2 | O=C(O)c1cc(O)c2c(c1)C(=O)c1cccc(O)c1C2=O [Rhein, 9,10-dihydro-4,5-dihydroxy-9,10-dioxo-2-anthracenecarboxylic acid] | – | – | – | anti-proliferative activity | – | – | 97.1 | 96.0 | 97.5 | 0.577 | 0.518 | 0.460 | 0.430 | 0.675 | 0.738 | 0.891 | decrease in proliferative activity | –
3 | Cc1c2oc3c(C)ccc(C(=O)N[C@@H]4C(=O)N[C@H](C(C)C)C(=O)N5CCC[C@H]5C(=O)N(C)CC(=O)N(C)[C@@H](C(C)C)C(=O)O[C@@H]4C)c3nc-2c(C(=O)N[C@@H]2C(=O)N[C@H](C(C)C)C(=O)N3CCC[C@H]3C(=O)N(C)CC(=O)N(C)[C@@H](C(C)C)C(=O)O[C@@H]2C)c(N)c1=O [actinomycin D] (I: T[dV]P[Sar][NMeV] / II: T[dV]P[Sar][NMeV]; ester I:1-I:C, II:1-II:C; linker I:N-II:N via Actinocin(9to1)) | – | – | – | – | – | – | – | – | – | – | – | – | – | – | – | – | – | ineffectiveness
